Assay results as given in patent US20150148377A1, “Quinoline Derivatives” (NOVARTIS AG, priority 2011, published 2015).

Legend:
[1] = molecular target: T1, human phosphoinositide-3 kinase (PI3K) delta (Homo sapiens, UniProt O00329); test: PI3K-mediated Akt 1/2 (S473) phosphorylation in Rat-1 cells (Cell PI3Kδ); type: cell-based; details: Rat-1 cells overexpressing myristoylated human PI3K delta; p-Akt (Ser473)
T1 construct: myristoylation signal (myristoylated form); expressed in transfected cells
T1 sequence (O00329 whole entry): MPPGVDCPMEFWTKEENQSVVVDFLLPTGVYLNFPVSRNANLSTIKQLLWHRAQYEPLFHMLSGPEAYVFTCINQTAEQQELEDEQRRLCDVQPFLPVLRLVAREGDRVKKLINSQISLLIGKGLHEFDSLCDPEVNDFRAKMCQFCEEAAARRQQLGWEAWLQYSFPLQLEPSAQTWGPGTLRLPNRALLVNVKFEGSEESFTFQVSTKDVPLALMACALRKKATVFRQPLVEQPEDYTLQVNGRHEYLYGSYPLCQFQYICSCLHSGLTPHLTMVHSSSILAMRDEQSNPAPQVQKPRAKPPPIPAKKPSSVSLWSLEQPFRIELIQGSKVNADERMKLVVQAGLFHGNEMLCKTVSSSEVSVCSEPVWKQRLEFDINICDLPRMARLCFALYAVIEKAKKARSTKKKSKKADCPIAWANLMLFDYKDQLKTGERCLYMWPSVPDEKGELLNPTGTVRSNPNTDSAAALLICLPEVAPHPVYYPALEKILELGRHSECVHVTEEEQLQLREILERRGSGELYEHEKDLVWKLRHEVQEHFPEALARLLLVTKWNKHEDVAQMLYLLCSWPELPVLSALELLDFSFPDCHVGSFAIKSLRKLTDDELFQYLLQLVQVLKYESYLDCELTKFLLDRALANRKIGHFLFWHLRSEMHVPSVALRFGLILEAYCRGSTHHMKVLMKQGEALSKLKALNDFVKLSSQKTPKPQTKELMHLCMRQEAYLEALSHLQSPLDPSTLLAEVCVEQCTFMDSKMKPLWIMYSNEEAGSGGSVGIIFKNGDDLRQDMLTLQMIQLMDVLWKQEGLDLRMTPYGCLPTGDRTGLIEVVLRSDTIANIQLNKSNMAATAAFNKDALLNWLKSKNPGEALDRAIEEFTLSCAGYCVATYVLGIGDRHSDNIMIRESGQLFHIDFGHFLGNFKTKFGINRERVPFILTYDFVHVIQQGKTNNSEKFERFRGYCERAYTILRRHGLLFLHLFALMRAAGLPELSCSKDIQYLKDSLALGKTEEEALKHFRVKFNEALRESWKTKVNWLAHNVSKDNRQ
T1 sequence (Q63787 whole entry partner): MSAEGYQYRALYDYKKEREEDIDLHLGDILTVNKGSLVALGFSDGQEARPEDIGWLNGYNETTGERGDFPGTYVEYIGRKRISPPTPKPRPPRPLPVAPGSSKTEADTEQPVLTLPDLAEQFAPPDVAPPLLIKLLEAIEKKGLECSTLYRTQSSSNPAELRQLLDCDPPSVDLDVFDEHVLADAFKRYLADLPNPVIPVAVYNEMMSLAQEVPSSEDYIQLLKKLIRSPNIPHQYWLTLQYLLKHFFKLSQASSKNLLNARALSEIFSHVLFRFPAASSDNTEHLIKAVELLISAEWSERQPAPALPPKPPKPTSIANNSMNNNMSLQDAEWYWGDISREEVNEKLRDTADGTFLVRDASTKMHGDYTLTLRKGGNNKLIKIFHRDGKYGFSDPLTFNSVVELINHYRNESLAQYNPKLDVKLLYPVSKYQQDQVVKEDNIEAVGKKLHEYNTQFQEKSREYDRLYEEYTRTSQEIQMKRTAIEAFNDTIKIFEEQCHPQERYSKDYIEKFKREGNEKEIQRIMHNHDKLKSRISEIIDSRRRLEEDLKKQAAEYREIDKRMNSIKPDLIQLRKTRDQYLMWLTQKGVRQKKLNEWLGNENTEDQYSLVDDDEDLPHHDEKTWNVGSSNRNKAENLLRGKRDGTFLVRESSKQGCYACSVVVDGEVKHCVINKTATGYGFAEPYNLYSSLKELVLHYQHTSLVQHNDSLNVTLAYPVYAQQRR
Method: 2.1 Phosphoinositide-3 kinase (PI3K)-mediated Akt 1/2 (S473) phosphorylation in Rat-1 cells
Rat-1 cells stably overexpressing a myristoylated form of the catalytic subunit of human phosphoinositide-3 kinase (PI3K) alpha, beta or delta were plated in 384-well plates at a density of 7500 (PI3K alpha), 6200 (PI3K beta), or 4000 (PI3K delta) cells in 30 ul complete growth medium (Dulbecco's modified Eagle's medium (DMEM high glucose) supplemented with 10% (v/v) fetal bovine serum, 1% (v/v) MEM non essential amino acids, 10 mM HEPES, 2 mM L-glutamine, 10 μg/mL puromycin and 1% (v/v) Penicillin/Streptomycin) and were incubated at […]/5% CO2/95% humidity for 24 h. Compounds were diluted in 384-well compound plates to obtain 8-point serial dilutions for 40 test compounds in 90% DMSO, as well as 4 reference compounds plus 16 high controls and 16 low (inhibited) controls. Predilution plates were prepared by dispensing pipetting 250 nl of compound solutions into 384-well polypropylen plates using a Hummingwell nanoliter dispensor. Compounds were prediluted by the addition of 49.75 ul complete growth medium. 10 ul of prediluted compound solution were transferred to the cell plate using a 384-well pipettor, resulting in a final DMSO concentration of 0.11%. Cells were incubated for 1 h at […]/5% CO2/95% humidity. The supernatant was removed, the cells were lysed in 20 ul of lysis buffer for AlphaScreen® SureFire® detection.
For detection of p-AKT(Ser473), the SureFire® p-Akt 1/2 (Ser473) Assay Kit (PerkinElmer, U.S.A) was used. 5 ul of cell lysate was transferred to 384-well low volume Proxiplates for detection using a 384-well pipettor. Addition of AlphaScreen® SureFire® reagents was done according to the manufacturer's protocol. First, 5 ul of reaction buffer plus activation buffer mix containing AlphaScreen® acceptor beads was added, the plate was sealed, and incubated on a plate shaker for 2 hours at room temperature. Second, 2 ul of dilution buffer containing AlphaScreen® donor beads was added, and the plate was incubated on plate shaker as above for a further 2 hours. The plate was read on an AlphaScreen® compatible plate reader, using standard AlphaScreen® settings.

[2] = tested on: CD86 on rat B cells; test: Rat B cell activation in whole blood (CD86 upregulation after anti-IgM and IL-4); type: cell-based; details: anti-IgM + rIL-4 stimulation, CD86 on CD45RA+ B cells, read-out: RWB/IC50 CD86
Method: PI3Kδ has been recognized to modulate B cell function when cells are stimulated through the B cell receptor (BCR) (Okkenhaug et al. Science 297:1031 (2002). For assessing the inhibitory property of compounds on B cell activation, the upregulation of activation markers CD86 on rat B cells derived from whole blood is measured after stimulation with anti-IgM and recombinant IL-4. The CD86 molecule (also known as B7-2) is primarily expressed on antigen-presenting cells, including B cells. Resting B cells express CD86 at low levels, but upregulate it following stimulation of e.g. the BCR or IL-4 receptor. CD86 on a B cell interacts with CD28 on T cells. This interaction is required for optimal T cell activation and for the generation of an optimal IgG1 response (Carreno et al. Annu Rev Immunol. 20:29 (2002)).
Whole blood was collected from the abdominal aorta adult male Lewis rats (LEW/HanHsd) oby using a 10 ml syringe with hypodermic needle pre-coated with sodium heparin. Blood was transferred into 50 ml Falcon tubes and the anticoagulant concentration was adjusted to 100 U/ml.
For assessment of the in vitro effects of immunosuppressive drugs, heparinized blood was prediluted to 50% with medium. As medium served DMEM high glucose (Animed cat#1-26F01-I) supplemented with 100 U/ml penicillin, […], 2 mM L-glutamin, 50 mg/ml dextran 40 and 5% fetal calf serum (FCS, Fetaclone I, Gibco #10270-106). Then, 190 μl prediluted blood was spiked with 10 μl of pre-diluted test compound in 96 well U-bottomed microtiter plates (Nunc) resulting in a 3-fold serial dilution with a concentration range from 20 to 0.0003 μM. Control wells were pretreated with DMSO to obtain a final concentration of 0.5% DMSO. Cultures were set up in duplicates, mixed well by agitation on a plate shaker (Heidolph Titramax 101; 30 sec, speed 900), pipetting up and down and agitated on the plate shaker again. Cultures were incubated at 37° C., 5% CO2 for 1 hr. Then, 20 μl of polyclonal goat anti-rat IgM Ab (Serotec, cat#302001) and 10 μl of diluted recombinant rIL-4 (Immunotools #340085) were added to obtain final concentrations of 30 μg/ml and 5 ng/ml, respectively. Plates were mixed by agitation on a plate shaker as above and incubated for 24 hrs at 37° C., 5% CO2.
After incubation, 15 μl of a 25 mM EDTA solution was added per well and shaken for 15 min to detach adherent cells. For analysis of surface activation markers, samples were then stained with PE-Cy5-labeled anti-ratCD45RA (BD cat#557015) to allow gating on B cells in FACS analysis. In addition, samples were stained with PE-labeled anti-rat CD86 (BD cat#551396). All staining procedures were performed at RT for 30 min in the dark. After incubation, samples were transferred to 96-deep well V-bottomed microtiter plates (Corning #396096) containing 2 ml/well of BD Lysing Solution (BD #349202). After lysis of erythrocytes samples were washed with 2 ml of CeIIWASH (BD #349524). Data was acquired on an LSRII or FACScalibur flow cytometer (BD Biosciences) using Cellquest Plus or DIVA (version 6.1.1) software, respectively. Lymphocytes were gated in the FSC/SSC dot blot according to size and granularity and further analyzed for expression of CD45RA and activation markers. Data were calculated from dot blots or histograms as percentage of cells positively stained for activation markers within the CD45RA+ population.
The percentage inhibition of B cell activation after exposure to drug was calculated by the following formula: […]
ORIGIN 7 software (Origin Lab Corporation, Northampton, Mass.) was used for non-linear regression curve fitting. The drug concentration resulting in 50% inhibition (IC50) was obtained by fitting the Hill equation to inhibition data.

Row | SMILES | IC50 [1] [µM] | IC50 [2] [µM]
1 | COc1ncc(-c2ccnc3ccc(O[C@H]4CCN(C(=O)[C@@H]5CCN(C(C)=O)C5)C4)cc23)cc1C [Example A10, 1-((R)-3-{(S)-3-[4-(6-Methoxy-5-methyl-pyridin-3-yl)-quinolin-6-yloxy]-pyrrolidine-1-carbonyl}-pyrrolidin-1-yl)-ethanone] | 0.016 | 0.059
2 | COc1ncc(-c2ccnc3ccc(O[C@H]4CCN(C(=O)C5CCS(=O)(=O)CC5)C4)c(C)c23)cc1C [Example B3, (1,1-Dioxo-hexahydro-1lambda*6*-thiopyran-4-yl)-{(S)-3-[4-(6-methoxy-5-methyl-pyridin-3-yl)-5-methyl-quinolin-6-yloxy]-pyrrolidin-1-yl}-methanone] | 0.105 | 0.107
3 | COc1ncc(-c2ccnc3ccc(O[C@H]4CCN(C(=O)C5CCS(=O)(=O)CC5)C4)cc23)cc1Cl [Example A1, {(S)-3-[4-(5-Chloro-6-methoxy-pyridin-3-yl)-quinolin-6-yloxy]-pyrrolidin-1-yl}-(1,1-dioxo-hexahydro-1lambda*6*-thiopyran-4-yl)-methanone] | 0.032 | 0.073
4 | COc1ncc(-c2ccnc3cc(F)c(O[C@H]4CCN(C(=O)C5CCS(=O)(=O)CC5)C4)cc23)cc1C [Example C1, (1,1-Dioxo-hexahydro-1lambda*6*-thiopyran-4-yl)-{(S)-3-[7-fluoro-4-(6-methoxy-5-methyl-pyridin-3-yl)-quinolin-6-yloxy]-pyrrolidin-1-yl}-methanone] | 0.246 | 0.0865

More lines, in order of falling IC50 [1], values ahead:

Row | IC50 [1] [µM] | IC50 [2] [µM] | SMILES
5 | 0.26 | 0.443 | CCC(=O)N1CC[C@H](Oc2ccc3nccc(-c4cnc(S(C)(=O)=O)c(C)c4)c3c2)C1 [Example A25, 1-{(S)-3-[4-(6-Methanesulfonyl-5-methyl-pyridin-3-yl)-quinolin-6-yloxy]-pyrrolidin-1-yl}-propan-1-one]
6 | 0.116 | 0.0462 | Cc1cc(-c2ccnc3cc(F)c(O[C@H]4CCN(C(=O)C5CCOCC5)C4)cc23)cnc1S(C)(=O)=O [Example C2, {(S)-3-[7-Fluoro-4-(6-methanesulfonyl-5-methyl-pyridin-3-yl)-quinolin-6-yloxy]-pyrrolidin-1-yl}-(tetrahydro-pyran-4-yl)-methanone]
7 | 0.078 | 0.043 | COc1ncc(-c2ccnc3ccc(O[C@H]4CCN(C(=O)C5CCS(=O)(=O)CC5)C4)cc23)cc1C(F)F [Example A6, {(S)-3-[4-(5-Difluoromethyl-6-methoxy-pyridin-3-yl)-quinolin-6-yloxy]-pyrrolidin-1-yl}-(1,1-dioxo-hexahydro-1lambda*6*-thiopyran-4-yl)-methanone]
8 | 0.052 | 0.101 | COc1ncc(-c2ccnc3ccc(O[C@H]4CCN(C(=O)C5CCS(=O)(=O)CC5)C4)cc23)cc1C [Example A15, (1,1-Dioxo-hexahydro-1lambda*6*-thiopyran-4-yl)-{(S)-3-[4-(6-methoxy-5-methyl-pyridin-3-yl)-quinolin-6-yloxy]-pyrrolidin-1-yl}-methanone]
9 | 0.014 | 0.047 | COc1ncc(-c2ccnc3ccc(O[C@H]4CCN(C(=O)[C@@H]5CCN(C(C)=O)C5)C4)cc23)cc1C(F)F [Example A24, 1-((R)-3-{(S)-3-[4-(5-Difluoromethyl-6-methoxy-pyridin-3-yl)-quinolin-6-yloxy]-pyrrolidine-1-carbonyl}-pyrrolidin-1-yl)-ethanone]
10 | 0.014 | 0.078 | COc1ncc(-c2ccnc3ccc(O[C@H]4CCN(C(=O)[C@@H]5CCN(C(C)=O)C5)C4)c(C)c23)cc1C(F)F [Example B1, 1-((R)-3-{(S)-3-[4-(5-Difluoromethyl-6-methoxy-pyridin-3-yl)-5-methylquinolin-6-yloxy]-pyrrolidine-1-carbonyl}-pyrrolidin-1-yl)-ethanone]
